The values that follow come from patent US11970494B2, “6-heteroaryloxy benzimidazoles and azabenzimidazoles as JAK2 inhibitors” (Ajax Therapeutics, Inc., priority 2021, dated 2024).

T1 sequence (O60674 849-1124 Y1007F/Y1008F limits assumed): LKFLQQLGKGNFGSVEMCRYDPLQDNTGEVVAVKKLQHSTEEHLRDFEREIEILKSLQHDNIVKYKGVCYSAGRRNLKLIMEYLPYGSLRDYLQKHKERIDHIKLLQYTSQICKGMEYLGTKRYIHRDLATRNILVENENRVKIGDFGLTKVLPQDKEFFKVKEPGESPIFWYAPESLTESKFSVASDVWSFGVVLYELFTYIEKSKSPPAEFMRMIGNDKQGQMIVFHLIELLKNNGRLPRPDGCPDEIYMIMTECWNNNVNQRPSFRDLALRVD

This test concerns the target T1, JAK2 (JH1 domain-catalytic, Y1007F,Y1008F) kinase (Homo sapiens, UniProt O60674, Y1007F/Y1008F).
T1 construct: made in house; host or cells: transiently transfected HEK293 cells
The experiment in a line: JAK2 Binding Assay (JAK2 JH1 Domain Binding Assay). The note with it: JAK2 JH1 domain binding, qPCR detection; read-out: JAK2 Kd. For orientation: Quantitative PCR measures a nucleic acid by following its amplification.
As to `CC(=O)Nc1cc(Oc2cnc3nc(Nc4cc5n(n4)CCC54CCC4)n(C)c3c2C#N)ccn1` [Example I-113, N-(4-((7-cyano-2-((5′,6′-dihydrospiro[cyclobutane-1,4′-pyrrolo[1,2-b]pyrazol]-2′-yl)amino)-1-methyl-1H-imidazo[4,5-b]pyridin-6-yl)oxy)pyridin-2-yl)acetamide], the Kd – broadly, the constant that tells how readily two partners part at equilibrium – was less than 10 nM. The figure for `CC(=O)Nc1cc(Oc2cnc3nc(Nc4ccc(CN(C)C)c(C(F)(F)F)c4)n(C)c3c2C#N)ccn1` [Example I-105, N-(4-((7-cyano-2-((4-((dimethylamino)methyl)-3-(trifluoromethyl)phenyl)amino)-1-methyl-1H-imidazo[4,5-b]pyridin-6-yl)oxy)pyridin-2-yl)acetamide] is less than 10 nM. The figure for `COCC(=O)Nc1cc(Oc2cnc3nc(Nc4cc(C(F)(F)F)n(C5CC6(CCOCC6)C5)n4)n(C)c3c2C#N)ccn1` [Example I-110, N-(4-((2-((1-(7-oxaspiro[3.5]nonan-2-yl)-5-(trifluoromethyl)-1H-pyrazol-3-yl)amino)-7-cyano-1-methyl-1H-imidazo[4,5-b]pyridin-6-yl)oxy)pyridin-2-yl)-2-methoxyacetamide] is less than 10 nM; for `CC(=O)Nc1cc(Oc2cnc3nc(Nc4cc5n(n4)CCN5C(C)(C)C)n(C)c3c2C#N)ccn1` [Example I-115, N-(4-((2-((1-(tert-butyl)-2,3-dihydro-1H-imidazo[1,2-b]pyrazol-6-yl)amino)-7-cyano-1-methyl-1H-imidazo[4,5-b]pyridin-6-yl)oxy)pyridin-2-yl)acetamide] it is less than 10 nM; for `CNC(=O)Nc1cc(Oc2cnc3nc(Nc4cc5n(n4)CCCC54CC4)n(C)c3c2C#N)ccn1` [Example I-64, 1-(4-((7-cyano-2-((6′,7′-dihydro-5′H-spiro[cyclopropane-1,4′-pyrazolo[1,5-a]pyridin]-2′-yl)amino)-1-methyl-1H-imidazo[4,5-b]pyridin-6-yl)oxy)pyridin-2-yl)-3-methylurea] it is less than 10 nM.

For the molecule `Cn1c(Nc2cc3n(n2)CCCC3(F)F)nc2ncc(Oc3ccnc(NC(=O)O[C@H]4CCOC4)c3)c(C#N)c21` [Example I-36, (S)-tetrahydrofuran-3-yl(4-((7-cyano-2-((4,4-difluoro-4,5,6,7-tetrahydropyrazolo[1,5-a]pyridin-2-yl)amino)-1-methyl-1H-imidazo[4,5-b]pyridinyl)oxy)pyridin-2-yl)carbamate], the Kd was less than 10 nM. The figure for `CC(=O)Nc1cc(Oc2cnc3nc(Nc4cc([C@@H]5CCOC5)nc(C(F)(F)F)c4)n(C)c3c2Cl)ccn1` (single isomer, unassigned) [Example I-91-b] is less than 10 nM; for `CC(=O)Nc1cc(Oc2cnc3nc(Nc4cc(COC5CN(C)C5)cc(C(F)(F)F)c4)n(C)c3c2Cl)ccn1` [Example I-101, N-(4-((7-chloro-1-methyl-2-((3-(((1-methylazetidin-3-yl)oxy)methyl)-5-(trifluoromethyl)phenyl)amino)-1H-imidazo[4,5-b]pyridin-6-yl)oxy)pyridin-2-yl)acetamide] it is less than 10 nM; for `Cn1c(Nc2cc3n(n2)CCCC3(F)F)nc2ncc(Oc3ccnc(NC(=O)N4CC[C@@H](O)C4)c3)c(C#N)c21` [Example I-28, (R)-N-(4-((7-cyano-2-((4,4-difluoro-4,5,6,7-tetrahydropyrazolo[1,5-c]pyridin-2-yl)amino)-1-methyl-1H-imidazo[4,5-b]pyridin-6-yl)oxy)pyridin-2-yl)-3-hydroxypyrrolidine-1-carboxamide] it is less than 10 nM. For `CN1CCn2nc(Nc3nc4ncc(Oc5ccnc(NC(=O)OC6COC6)c5)c(Cl)c4n3C)cc2C1=O` [Example I-54, oxetan-3-yl(4-((7-chloro-1-methyl-2-((5-methyl-4-oxo-4,5,6,7-tetrahydropyrazolo[1,5-a]pyrazin-2-yl)amino)-1H-imidazo[4,5-b]pyridin-6-yl)oxy)pyridin-2-yl)carbamate], the Kd fell in the range of 1000 to 5000 nM. As for `CC(=O)Nc1cc(Oc2cnc3nc(Nc4cc5n(n4)CCN(C)C54CC4)n(C)c3c2C#N)ccn1` [Example I-119], the Kd lay within 10 to 50 nM.
